Among the data in patent US4060652A (priority 1976, dated 1977) are LD50 and selectivity ratio values, retold here.

The data set can be described thus: Lethality by paralysis of respiratory muscles in rabbits. The note with it: rabbit, in vivo. An excerpt:
In another series of experiments, we determined the intravenous dose of the muscle relaxants that caused death of 50% of the animals due to paralysis of the respiratory muscles -- lethal dose 50% (LD50).

`CC[N+](CC)(CC)c1ccc(-c2ccc(-c3ccc([N+](CC)(CC)CC)cc3)cc2)cc1` [Tercuronium, p,p"-bis-triethylammonio-n-terphenyl dibenzenesulphonate]: the LD50 (usually the dose at which mortality reaches 50%) (intravenous) came to 0.03 µmol/kg. The selectivity ratio (read-out: LD50 to HDD ratio) came to 1.4.
